Measurements: patent US11180474B2 (BRISTOL-MYERS SQUIBB COMPANY, priority 2016, dated 2021)

Columns and labels:
human TLR8 = molecular target: T1, human TLR8 (Homo sapiens, UniProt Q9NR97); assay: TLR8 inhibition reporter assay (HEK-Blue cells, SEAP reporter, R848 stimulation); format: cell-based; details: HEK-Blue cells overexpressing human TLR8, R848 15.9 μM
T1 construct: host or cells: HEK-Blue cells
T1 sequence (Q9NR97 27-1041): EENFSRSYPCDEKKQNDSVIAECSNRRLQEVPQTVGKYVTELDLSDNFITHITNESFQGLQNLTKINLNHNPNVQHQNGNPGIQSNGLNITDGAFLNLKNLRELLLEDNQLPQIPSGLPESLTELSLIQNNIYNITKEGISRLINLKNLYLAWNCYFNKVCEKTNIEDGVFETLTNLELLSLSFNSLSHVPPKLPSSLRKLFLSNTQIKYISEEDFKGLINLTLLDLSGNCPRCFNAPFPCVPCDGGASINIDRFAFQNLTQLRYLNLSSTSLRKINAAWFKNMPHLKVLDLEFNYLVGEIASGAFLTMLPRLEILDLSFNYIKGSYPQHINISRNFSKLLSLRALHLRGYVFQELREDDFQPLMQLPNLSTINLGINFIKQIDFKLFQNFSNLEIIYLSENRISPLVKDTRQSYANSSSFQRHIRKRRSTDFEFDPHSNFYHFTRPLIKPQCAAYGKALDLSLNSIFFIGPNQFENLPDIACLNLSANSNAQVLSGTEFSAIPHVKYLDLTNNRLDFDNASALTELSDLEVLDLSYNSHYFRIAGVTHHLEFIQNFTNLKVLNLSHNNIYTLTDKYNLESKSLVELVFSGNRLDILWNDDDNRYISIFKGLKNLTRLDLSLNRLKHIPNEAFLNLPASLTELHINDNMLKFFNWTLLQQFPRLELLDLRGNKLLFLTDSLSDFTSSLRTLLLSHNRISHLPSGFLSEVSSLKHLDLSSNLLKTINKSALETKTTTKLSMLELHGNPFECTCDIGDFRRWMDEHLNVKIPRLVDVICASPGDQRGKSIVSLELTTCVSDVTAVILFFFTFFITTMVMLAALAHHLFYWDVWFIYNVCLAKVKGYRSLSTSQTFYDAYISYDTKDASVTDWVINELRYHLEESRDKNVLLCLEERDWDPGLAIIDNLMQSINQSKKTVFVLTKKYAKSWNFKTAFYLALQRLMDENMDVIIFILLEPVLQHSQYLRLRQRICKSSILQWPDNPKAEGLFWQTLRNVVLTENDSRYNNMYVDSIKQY
Method in brief: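 Cells (15000/well for TLR7, 20,000 for TLR8) were treated with compounds over 0.05 nM-50 μM final. After 22 h at 37° C, 5% CO2, SEAP was measured with HEK-Blue Detection reagent; percent inhibition was taken as reduction of agonist-plus-DMSO signal relative to a known inhibitor.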

human TLR9 = molecular target: T2, human TLR9 (Homo sapiens, UniProt Q9NR96); assay: TLR9 inhibition reporter assay (HEK-Blue cells, SEAP reporter, ODN2006 stimulation); format: cell-based; details: HEK-Blue cells overexpressing human TLR9, ODN2006 5 nM
T2 construct: host or cells: HEK-Blue cells
T2 sequence (Q9NR96 26-1032): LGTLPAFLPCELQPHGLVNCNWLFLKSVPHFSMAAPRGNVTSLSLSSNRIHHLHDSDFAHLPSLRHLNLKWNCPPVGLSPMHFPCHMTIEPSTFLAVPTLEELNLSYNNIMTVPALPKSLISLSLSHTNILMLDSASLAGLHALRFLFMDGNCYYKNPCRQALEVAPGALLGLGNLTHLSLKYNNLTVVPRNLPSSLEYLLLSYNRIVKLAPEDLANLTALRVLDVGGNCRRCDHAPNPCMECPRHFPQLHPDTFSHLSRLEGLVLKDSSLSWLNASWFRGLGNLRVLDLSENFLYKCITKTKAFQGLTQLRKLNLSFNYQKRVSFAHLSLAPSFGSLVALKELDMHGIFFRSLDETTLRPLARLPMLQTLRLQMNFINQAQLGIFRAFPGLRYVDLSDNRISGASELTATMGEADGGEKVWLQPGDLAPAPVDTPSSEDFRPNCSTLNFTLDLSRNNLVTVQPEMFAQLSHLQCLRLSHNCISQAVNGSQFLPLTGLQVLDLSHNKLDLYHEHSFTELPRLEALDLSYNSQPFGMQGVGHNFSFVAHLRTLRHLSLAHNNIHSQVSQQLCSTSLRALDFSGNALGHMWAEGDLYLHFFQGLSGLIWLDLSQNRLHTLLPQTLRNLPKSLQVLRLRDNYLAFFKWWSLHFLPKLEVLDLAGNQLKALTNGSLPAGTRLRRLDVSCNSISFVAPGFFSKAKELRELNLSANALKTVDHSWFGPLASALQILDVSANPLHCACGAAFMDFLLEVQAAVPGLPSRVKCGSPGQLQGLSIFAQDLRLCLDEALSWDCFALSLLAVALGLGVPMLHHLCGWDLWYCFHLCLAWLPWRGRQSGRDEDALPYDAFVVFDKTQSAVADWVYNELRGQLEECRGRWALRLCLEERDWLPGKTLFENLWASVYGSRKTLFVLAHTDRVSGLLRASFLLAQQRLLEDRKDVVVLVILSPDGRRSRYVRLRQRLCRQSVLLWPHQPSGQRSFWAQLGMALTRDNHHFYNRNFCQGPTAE
Method in brief: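 Human TLR7/8/9 HEK-Blue reporter lines; dose range 0.05 nM–50 μM; 30 min RT preincubation; stimulus gardiquimod 7.5 μM / R848 15.9 μM / ODN2006 5 nM respectively; 22 h, 37 °C; SEAP detected colorimetrically.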

COc1ccc(-c2[nH]c3ccc(C4CCN(Cc5cncn5C)CC4)cc3c2C(C)C)cc1OC [Example 258, 2-(3,4-dimethoxyphenyl)-3-isopropyl-5-(1-((1-methyl-1H-imidazol-5-yl)methyl)piperidin-4-yl)-1H-indole]
IC50 (human TLR8): 17 nM
IC50 (human TLR9): 1440 nM

COc1ccc(-c2[nH]c3ccc(C4CCN(Cc5cnn(C)c5)CC4)cc3c2C(C)C)cc1OC [Example 259, 2-(3,4-dimethoxyphenyl)-3-isopropyl-5-(1-((1-methyl-1H-pyrazol-4-yl)methyl)piperidin-4-yl)-1H-indole]
IC50 (human TLR8): 11 nM
IC50 (human TLR9): 2030 nM

COc1ccc(-c2[nH]c3ccc(C4CCN(Cc5nccn5C)CC4)cc3c2C(C)C)cc1OC [Example 262, 2-(3,4-dimethoxyphenyl)-3-isopropyl-5-(1-((1-methyl-1H-imidazol-2-yl)methyl)piperidin-4-yl)-1H-indole]
IC50 (human TLR8): 23 nM
IC50 (human TLR9): 2970 nM

COc1ccc(-c2[nH]c3ccc(C4CCN(Cc5cnc(C)[nH]5)CC4)cc3c2C(C)C)cc1OC [Example 266, 2-(3,4-dimethoxyphenyl)-3-isopropyl-5-(1-((2-methyl-1H-imidazol-5-yl)methyl)piperidin-4-yl)-1H-indole]
IC50 (human TLR8): 20 nM
IC50 (human TLR9): 1260 nM

COc1ccc(-c2[nH]c3ccc(C4CCN(Cc5cnc[nH]5)CC4)cc3c2C(C)C)cc1OC [Example 268, 5-(1-((1H-imidazol-5-yl)methyl)piperidin-4-yl)-2-(3,4-dimethoxyphenyl)-3-isopropyl-1H-indole]
IC50 (human TLR8): 15 nM
IC50 (human TLR9): 1480 nM

CCN(CC)C(=O)C1CCCN(C(=O)CN2CCC(c3ccc4[nH]c(-c5ccc(OC)c(OC)c5)c(C(C)C)c4c3)CC2)C1 (stereo not drawn) [Example 272, 1-(2-(4-(2-(3,4-dimethoxyphenyl)-3-isopropyl-1H-indol-5-yl)piperidin-1-yl)acetyl)-N,N-diethylpiperidine-3-carboxamide]
IC50 (human TLR8): 37 nM
IC50 (human TLR9): 3400 nM

COc1ccc(-c2[nH]c3ccc(C4CCN(CC(=O)NC5CCN(C(C)C)CC5)CC4)cc3c2C(C)C)cc1OC [Example 273, 2-(4-(2-(3,4-dimethoxyphenyl)-3-isopropyl-1H-indol-5-yl)piperidin-1-yl)-N-(1-isopropylpiperidin-4-yl)acetamide]
IC50 (human TLR8): 29 nM
IC50 (human TLR9): 565 nM

COc1ccc(-c2[nH]c3ccc(C4CCN(CC(=O)N5CCN(C)CC5)CC4)cc3c2C(C)C)cc1OC [Example 274, 2-(4-(2-(3,4-dimethoxyphenyl)-3-isopropyl-1H-indol-5-yl)piperidin-1-yl)-1-(4-methylpiperazin-1-yl) ethan-1-one]
IC50 (human TLR8): 228 nM
IC50 (human TLR9): 829 nM

COc1ccc(-c2[nH]c3ccc(C4CCN(CC(=O)N5CCCC(CO)C5)CC4)cc3c2C(C)C)cc1OC (stereo not drawn) [Example 275, 2-(4-(2-(3,4-dimethoxyphenyl)-3-isopropyl-1H-indol-5-yl)piperidin-1-yl)-1-(3-(hydroxymethyl)piperidin-1-yl)ethan-1-one]
IC50 (human TLR8): 22 nM
IC50 (human TLR9): 1660 nM

COc1ccc(-c2[nH]c3ccc(C4CCN(CC(=O)NCCO)CC4)cc3c2C(C)C)cc1OC [Example 276, 2-(4-(2-(3,4-dimethoxyphenyl)-3-isopropyl-1H-indol-5-yl)piperidin-1-yl)-N-(2-hydroxyethyl) acetamide]
IC50 (human TLR8): 27 nM
IC50 (human TLR9): 3580 nM

COc1ccc(-c2[nH]c3ccc(C4CCN(CC(=O)NCCCO)CC4)cc3c2C(C)C)cc1OC [Example 277, 2-(4-(2-(3,4-dimethoxyphenyl)-3-isopropyl-1H-indol-5-yl)piperidin-1-yl)-N-(3-hydroxypropyl)acetamide]
IC50 (human TLR8): 37 nM
IC50 (human TLR9): 4980 nM

COc1ccc(-c2[nH]c3ccc(C4CCN(CC(=O)N5CC[C@H](O)C5)CC4)cc3c2C(C)C)cc1OC [Example 278, (S)-2-(4-(2-(3,4-dimethoxyphenyl)-3-isopropyl-1H-indol-5-yl)piperidin-1-yl)-1-(3-hydroxypyrrolidin-1-yl)ethan-1-one]
IC50 (human TLR8): 11 nM
IC50 (human TLR9): 2870 nM

COc1ccc(-c2[nH]c3ccc(C4CCN(CC(=O)N[C@H]5CC[C@H](C(C)(C)O)CC5)CC4)cc3c2C(C)C)cc1OC [Example 279, 2-(4-(2-(3,4-dimethoxyphenyl)-3-isopropyl-1H-indol-5-yl)piperidin-1-yl)-N-((1r,4r)-4-(2-hydroxypropan-2-yl)cyclohexyl)acetamide]
IC50 (human TLR8): 1160 nM
IC50 (human TLR9): 18000 nM

COc1ccc(-c2[nH]c3ccc(C4CCN(C(=O)CN5CCC[C@H](C(=O)N6CCN(C(C)=O)CC6)C5)CC4)cc3c2C(C)C)cc1OC [Example 284, (S)-2-(3-(4-acetylpiperazine-1-carbonyl)piperidin-1-yl)-1-(4-(2-(3,4-dimethoxyphenyl)-3-isopropyl-1H-indol-5-yl)piperidin-1-yl)ethan-1-one]
IC50 (human TLR8): 25 nM
IC50 (human TLR9): 4610 nM

COc1ccc(-c2[nH]c3ccc(C4CCN(C(=O)CN5CCC[C@H](C(=O)NC(C)C)C5)CC4)cc3c2C(C)C)cc1OC [Example 285, (S)-1-(2-(4-(2-(3,4-dimethoxyphenyl)-3-isopropyl-1H-indol-5-yl)piperidin-1-yl)-2-oxoethyl)-N-isopropylpiperidine-3-carboxamide]
IC50 (human TLR8): 37 nM
IC50 (human TLR9): 4950 nM

COc1ccc(-c2[nH]c3ccc(C4CCN(C(=O)CN5CCC[C@H](C(=O)N6CCN(C(C)C)CC6)C5)CC4)cc3c2C(C)C)cc1OC [Example 286, (S)-1-(4-(2-(3,4-dimethoxyphenyl)-3-isopropyl-1H-indol-5-yl)piperidin-1-yl)-2-(3-(4-isopropylpiperazine-1-carbonyl)piperidin-1-yl)ethan-1-one]
IC50 (human TLR8): 17 nM
IC50 (human TLR9): 603 nM

COc1ccc(-c2[nH]c3ccc(C4CCN(C(=O)CN5CCC[C@H](C(=O)N6CCCC6)C5)CC4)cc3c2C(C)C)cc1OC [Example 287, (S)-1-(4-(2-(3,4-dimethoxyphenyl)-3-isopropyl-1H-indol-5-yl)piperidin-1-yl)-2-(3-(pyrrolidine-1-carbonyl)piperidin-1-yl)ethan-1-one]
IC50 (human TLR8): 33 nM
IC50 (human TLR9): 2280 nM

COc1ccc(-c2[nH]c3ccc(C4CCN(C(=O)CN5CCC[C@H](C(=O)N(C)C(C)C)C5)CC4)cc3c2C(C)C)cc1OC [Example 288, (S)-1-(2-(4-(2-(3,4-dimethoxyphenyl)-3-isopropyl-1H-indol-5-yl)piperidin-1-yl)-2-oxoethyl)-N-isopropyl-N-methylpiperidine-3-carboxamide]
IC50 (human TLR8): 32 nM
IC50 (human TLR9): 633 nM
